For this assay, the system named is CEM cells HIV-1 protection, formazan growth assay. The assay is described as follows: NCI AIDS Antiviral Assay. The note with it: for IC50: measured here: growth of uninfected CEM cells. In short, it runs like this:
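CEM (human) cells, HIV-1 infected vs uninfected, 5-point dosing, formazan growth read-out. Retest threshold 50% protection.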

“And” between values parts separate entries of the source, which are not always exact repeats. Equal entries are not always repeated. The source made the active and inactive calls.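 How the source made its calls: active means compounds giving half or more protection of infected cells from virus-caused growth loss, again on retest; inactive means the rest.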 Bounds are passed on as bounds.

The EC50 is the concentration at which the effect is half-maximal. By IC50 is commonly meant the midpoint of a concentration-inhibition curve. Low readings indicate higher potency, high ones lower potency. On to `O=C(/C=C(\Nc1ccccc1O)c1ccccc1)C(=O)NC12CC3CC(CC(C3)C1)C2`, for which the EC50 is more than 200 µM and the IC50 was more than 200 µM.

As to `O=C(Nc1ccc(C2=NCCN2)cc1)c1ccc(F)c(C(=O)Nc2ccc(C3=NCCN3)cc2)c1`, the EC50 is more than 200 µM and the IC50 is more than 200 µM.

As for `O=C(/C=C/c1ccc(O)c(O)c1)OCC(OC(=O)/C=C/c1ccc(O)c(O)c1)C(=O)O` (stereo unspecified), the EC50 was more than 200 µM and the IC50 stood at 28.2 µM.

Consider `Cc1ccnc2c1c(=O)c1ccccc1n2C`, for which the EC50 was more than 151 µM and the half-maximal inhibitory concentration (IC50) was determined as 41.7 µM.

As to `Cc1oc2nc(N(C)C)n3c(C)nnc3c2c1C`, the outcome was inactive.

In the case of `O=C(CCN(C(=O)O)S(=O)(=O)c1ccc(NC(=O)c2ccccc2)cc1)Nc1ccccc1`, the EC50 was more than 537 µM and the IC50 is more than 537 µM.

Consider `CCc1ccc(N2C(=O)C(CC(=O)O)SC23C(=O)N(Cc2ccccc2)c2ccccc23)cc1` (stereo unspecified), for which the EC50 is more than 525 µM and the IC50 worked out at 28.8 µM.

`O=C(CI)Nc1ccc2oc(=O)c(C(=O)O)cc2c1`: the EC50 is more than 214 µM and the IC50 amounted to 23.4 µM.

For `Nc1nc2c(N)cc(C(F)(F)F)cc2nc1-c1ccccc1`, the EC50 was more than 17 µM and the IC50 was more than 17 µM.

Regarding `Cn1ccn2c3nc4ccccc4nc3c(=O)c(C#N)c12`, the outcome was inactive.

Regarding `CCCCCCCCCCCCCCCC=C(c1cc(Cl)c(OC)c(C(=O)O)c1)c1cc(Cl)c(OC)c(C(=O)O)c1`, the EC50 is more than 1200 µM; the IC50 was 26.3 µM and 52.5 µM.

For the molecule `Cc1ccc2c(c1)CNc1ccc(C)cc1CN2`, the outcome was inactive.

For `COc1ccc(C(=O)/C=C/c2ccc(OCC(=O)O)cc2)cc1`, the EC50 is more than 200 µM and the IC50 was 69.2 µM.

As for `COc1cc2c(c(OC)c1OC)-c1ccc(=O)c(OC)cc1C(NC(C)=O)CC2` (stereo unspecified), the result was inactive.

As for `C/C=C/C(=O)C(C)C1=CC(=O)C2=C(OC34CC[C@H](O)C(C)(C)[C@@H]3CC[C@H](C)C4(C)C2)C1=O` (stereo partly specified), the outcome was inactive.

For the molecule `Cc1ccc(N2COc3ccc4ccccc4c3C2)cc1`, the EC50 was more than 200 µM and the IC50 was 26.3 µM.

On to `CCCC/C=C/Cc1[nH]c2ccccc2c(=O)c1C`, for which the EC50 was more than 28.2 µM.

With `CC(C)(C)[Si](C)(C)OCC#C[C@@]1(O)CCCCC1CC(Sc1ccccc1)Sc1ccccc1` (stereo partly specified), the EC50 was more than 200 µM and the IC50 is 12.6 µM.

As for `COc1ccc2nc3cc([N+](=O)[O-])ccc3c(NNc3ccc([N+](=O)[O-])cc3)c2c1`, the EC50 is more than 200 µM and the IC50 stood at 50.1 µM.

`CCCc1c(C(=O)OCC)[nH]c(-c2ccc(-c3[nH]c(C(=O)OCC)c(CCC)c3C(=O)OCC)o2)c1C(=O)OCC`: the EC50 was more than 4.79 µM and the IC50 is more than 4.79 µM.

`CC(=O)O[C@H]1CC[C@]2(C)C3CC[C@]4(C)C([C@H](C)CCCC(C)C)CCC4[C@]3(C#N)n3c(=O)n(-c4ccccc4)c(=O)n3[C@]2(C#N)C1` (stereo partly specified): the EC50 was more than 200 µM and the IC50 is more than 200 µM.

In the case of `C1CN(CCSSCCN2CCOCC2)CCO1`, the EC50 is more than 200 µM and the concentration for half-maximal inhibition (IC50) amounted to 166 µM.

`O=P1(N2CCOCC2)OCCO1`: the EC50 was more than 200 µM and the IC50 was more than 200 µM.

For the molecule `CCN(CC)CCNc1ccc(CO)c2oc3ccc(OS(=O)(=O)c4ccc(C)cc4)cc3c(=O)c12`, the EC50 was more than 51.3 µM and the IC50 was 8.91 µM.

Take `C/C=C/C#CC#CC(O)C(O)/C=C/CCCO` (stereo unspecified): the EC50 is more than 77.6 µM and the IC50 is more than 77.6 µM.

With `CCOP(=O)(/C=C/c1ccccc1)OCC`, the outcome was inactive.

Regarding `c1c[nH]c(-c2ccc(-c3ccc[nH]3)c3nsnc23)c1`, the EC50 was more than 200 µM and the IC50 was more than 200 µM.

Regarding `O=C1c2ccccc2C(=O)c2c(NCCOCCO)ccc(NCCOCCO)c21`, the EC50 was more than 200 µM and the IC50 stood at 107 µM.

With `Oc1c(C2=NNC(c3ccc(Cl)cc3Cl)C2)ccc2ccccc12` (stereo unspecified), the EC50 was more than 200 µM and the IC50 was 32.4 µM.

In the case of `C=C1CC2OC2(C(=O)O[C@H]2CCC3[C@@H]4CCC5=CC(=O)CC[C@]5(C)C4CC[C@@]32C)C1=O` (stereo partly specified), the EC50 was more than 200 µM and the IC50 is 7.24 µM.

`Clc1ccc(SSc2ccc(Cl)cc2)cc1`: the EC50 was more than 200 µM; the IC50 was 3.31 µM and 5.13 µM.

`CCOC(=O)C(C)(C)Oc1ccc2c(-c3ccccc3)cc(=O)oc2c1`: the EC50 is more than 20.4 µM and the IC50 is more than 20.4 µM.

With `CC(C)=C[C@@H]1C[C@H](C)c2c(O)cc(C)c3c2C1=C(C)C(=O)C3=O`, the EC50 is more than 200 µM and the IC50 came out at 22.4 µM.

On to `CCOC(=O)CCn1[nH]c(=O)c(Cl)c(Cl)c1=O`, for which the result was inactive.

Turning to `CC(=O)OC1CCn2c1nc1cc([N+](=O)[O-])c(C)cc12` (stereo unspecified), the EC50 was more than 200 µM and the IC50 is more than 200 µM.

On to `Cc1ccc(NC(=O)C2C(=O)C(=O)N(c3ccc(C)cc3)C2=O)cc1` (stereo unspecified), for which the EC50 is more than 15.5 µM and the IC50 was more than 15.5 µM.

With `COc1ccc(NC(=O)C(=O)C(CC2C(=O)NC(=S)NC2=O)C(=O)c2ccc3ccccc3c2)c([N+](=O)[O-])c1` (stereo unspecified), the EC50 was more than 123 µM and the IC50 is more than 123 µM.

For `O=S(O)CCCCSSCc1ccccc1CSSCCCCS(=O)O`, the result was inactive.

With `CC1CN(C(=O)CN2CCC(CCCCN(C)C)CC2)c2ccccc2NC1=O` (stereo unspecified), the EC50 is more than 251 µM and the IC50 was more than 251 µM.

As for `COC(=O)C1=COC2OC3/C(=C\c4ccc(O)c(OC)c4)C(=O)OC34C=CC1C24` (stereo unspecified), the EC50 was more than 200 µM and the IC50 worked out at 24 µM.

Regarding `CCOC(=O)COc1ccc(OCC(=O)OCC)c2c1C(=O)CCCC2=O`, the outcome was inactive.

Regarding `COC[C@]12CN(C=O)[C@H]3C4[C@H](OC)[C@H]1C3([C@@H](OC)C[C@H]2O)[C@@H]1C[C@@]2(O)[C@H](OC(=O)c3ccccc3)[C@@H]1[C@]4(OC(C)=O)[C@@H](O)[C@@H]2OC`, the EC50 is more than 200 µM and the IC50 was more than 200 µM.

As to `CC1=C(C(=O)Nc2ccc(Cl)c(C(=O)OC(C)C)c2)SCCO1`, the EC50 was 0.398 µM and the IC50 amounted to 74.1 µM.

`O=c1[nH]c(O)c(/C=N/C(=S)Nc2ccccc2)c(=O)[nH]1`: the outcome was inactive.

In the case of `NC(=S)NNc1c([N+](=O)[O-])cnn(-c2ccccc2)c1=O`, the EC50 is more than 58.9 µM and the IC50 came out at 0.324 µM.

Take `CC1(C)CCc2ccc(OCCC(=O)O)cc2O1`: the outcome was inactive.

As for `O=C1CSC2=NC3=C(COC/C3=C\c3ccc(F)cc3)C(c3ccc(F)cc3)N12` (stereo unspecified), the outcome was inactive.

Turning to `CCN(CCO)CCCC(C)Nc1ccnc2cc(Cl)ccc12` (stereo unspecified), the EC50 is more than 200 µM and the IC50 turned out to be 64.6 µM.

Consider `CN(C)c1ccc(C2=NC(=S)NC(c3cc(Cl)ccc3O)C2)cc1` (stereo unspecified), for which the EC50 is more than 200 µM and the concentration for half-maximal inhibition (IC50) is 30.2 µM.

On to `c1ccc(CN2COc3c(c4c(c5ccccc35)OCN(Cc3ccccc3)C4)C2)cc1`, for which the EC50 is more than 61.7 µM and the concentration for half-maximal inhibition (IC50) is more than 61.7 µM.

For the molecule `O=C1CCC2(C=Nc3ccccc32)C2Cc3ccccc3N12` (stereo unspecified), the EC50 is more than 13.2 µM and the 50% inhibitory concentration (IC50) was more than 13.2 µM.

With `O=C1Nc2cc(Cl)ccc2C(=O)N2CCC[C@@H]12`, the EC50 was more than 200 µM and the IC50 is more than 200 µM.

In the case of `CC(C)=CCC/C(C)=C/Cc1c(O)ccc2cc(-c3cc(O)cc(O)c3CC=C(C)C)oc12`, the EC50 is more than 22.4 µM and the IC50 came out at 18.2 µM.

For `O=c1cnn(C2OC(C(O)CO)C(O)C2O)c(=O)[nH]1` (stereo unspecified), the result was inactive.

Take `Nc1c(N=Nc2ccc(CCc3ccc(N=Nc4cc(S(=O)(=O)O)c5cccc(S(=O)(=O)O)c5c4N)cc3S(=O)(=O)O)c(S(=O)(=O)O)c2)cc(S(=O)(=O)O)c2cccc(S(=O)(=O)O)c12`: the EC50 was 6.31 µM and the IC50 was determined as 148 µM.

As for `O=C(Nc1ccc(C(F)(F)F)cc1[N+](=O)[O-])C(=O)C1NC(=S)NC1=O` (stereo unspecified), the EC50 was more than 95.5 µM and the IC50 was more than 95.5 µM.

As for `O=C1CC2C3C1N(c1ccc(Cl)cc1)C1(Nc4ccc(Cl)cc4)C(=O)CC(C31)N2c1ccc(Cl)cc1` (stereo unspecified), the EC50 is more than 200 µM and the IC50 stood at 33.9 µM.

Turning to `CN1OC(CO)CC12C1CC3CC(C1)CC2C3` (stereo unspecified), the EC50 was more than 1050 µM and the IC50 stood at 537 µM.

For the molecule `Cc1cc(N=Nc2ccccc2)ccc1NCS(=O)(=O)O`, the EC50 was more than 200 µM and the IC50 came out at 117 µM.

As to `CCOc1ccccc1N1C(=O)C(=O)C(c2nc3ccccc3s2)C(=O)C1=O`, the EC50 was more than 18.2 µM and the IC50 was more than 18.2 µM.

Regarding `CC[N+](C)(CC)CCC[N+]12CCC(CC1)CC2`, the EC50 was more than 631 µM and the IC50 was more than 631 µM.

For `CN(C)/N=N/c1nc2c(c(=O)n(C)c(=O)n2C)n1CC(O)CO` (stereo unspecified), the EC50 is more than 200 µM and the IC50 is more than 200 µM.

As to `Nc1ccc(C(=Nc2ccccc2)c2ccc(N)cc2)cc1`, the outcome was inactive.

For `O=C1/C(=C/c2ccccc2)CN(C(=O)Oc2ccc([N+](=O)[O-])cc2)C/C1=C\c1ccccc1`, the outcome was inactive.

Turning to `Cc1cc(Oc2cnc(=O)[nH]c2)cs1`, the EC50 is more than 200 µM and the IC50 was more than 200 µM.

Consider `COc1cc(-c2ccc(N=Nc3cc(S(=O)(=O)O)c4ccccc4c3N)c(OC)c2)ccc1N=Nc1cc(S(=O)(=O)O)c2ccccc2c1N`, for which the concentration giving a half-maximal response (EC50) was 13.2 µM and the IC50 was found to be 155 µM.

With `O=C(CSS(=O)(=O)O)c1ccccc1`, the EC50 is more than 200 µM and the IC50 is more than 200 µM.

Turning to `CN1C(=O)C(c2c[nH]c3ccccc23)N(C)C(=O)C1c1c[nH]c2ccccc12` (stereo unspecified), the EC50 is more than 200 µM and the IC50 was more than 200 µM.

`Cc1cccc(C(=O)c2ccccc2)c1C(=O)O` registered an EC50 of more than 200 µM and an IC50 of more than 200 µM.

Consider `N=c1oc2ccc([N+](=O)[O-])cc2cc1C(=O)NCc1ccccc1`, for which the EC50 is more than 200 µM and the half-maximal inhibitory concentration (IC50) was determined as 14.1 µM.

For `CC1(C)OC2C(CO)OC(/N=C(\NC#N)Oc3ccccc3)C2O1` (stereo unspecified), the EC50 was more than 200 µM and the IC50 is more than 200 µM.

Values taken from PubChem BioAssay AID179 (DTP/NCI, 2004).
